Literature values as cited in patent publication EP4470382A1, “PLANT EXTRACT AND METHODS COMPRISING THEREOF” (FUNDACION UNIVERSITARIA SAN ANTONIO (UCAM), priority 2023, dated 2024).

Settings: activity registered in BIOPEP for the sequence

Substance	Activity
RPKHPIKHQGLPQEVLNENLLRF [Isracidin - antiviral, identified in bovine casein hydrolysate, BIOPEP ID 9530]	antiviral
YQKFPQY	ACE inhibitor
LLYQEPVLGPVRGPFPIIV [peptide derived from bovine b-casein (1-28), identified in bovine casein hydrolysate, BIOPEP ID 8174]	immunomodulat ing
VYQHQKAMKPWIQPKTKVIPYVRYL [(fr. 183-207) of bovine alpha s2-casein, identified in bovine casein hydrolysate, BIOPEP ID 5469]	antibacterial
SQSKVLPVPQKAVPYPQ [Antioxidative peptide identified in bovine casein hydrolysate, BIOPEP ID 9907]	antioxidative
